Test system: CFTL12 Mast cells stimulated with IgE/antigen complex (TNF-alpha release)
Experiment: Inhibition of TNF-alpha production from IgE/antigen stimulated mast cells
Assay type: cell-based, mouse
Conditions: 60 minutes before IgE/antigen stimulation; for inhibition of TNF-alpha release: carrageenan 200 μg/ml, 6 hours at 37° C., supernatant ELISA (FIG. 1)
Procedure: TNF-alpha is a mediator that is central in an inflammatory process as observed during infections, and autoimmune diseases. It is released by white blood cells, mast cells, endothelium and several other tissues in the course of damage.
CFTL12 Mast cells were incubated with iota or kappa carrageenan at a concentration of 200 μg/ml. 60 minutes later the cells were stimulated with an IgE/antigen complex. Cells were incubated at 37° C. for 6 hours and TNF-alpha in the supernatant was determined by a commercial mouse TNF-alpha ELISA (Bender-Med-Systems). Error bars indicate the standard deviation between 4 independent wells. 1=non-stimulated; 2=IgE/antigen stimulation; 3=lambda carrageenan pretretament+subsequent IgE/antigen stimulation; 4=kappa carrageenan pretreatment++subsequent IgE/antigen stimulation, 5=iota-carrageenan pretreatment+subsequent IgE/antigen stimulation. The Y-axis mirrors the concentration of TNF-alpha in pg/ml.
Mast cells were incubated with iota-carrageenan at varying concentrations. 60 minutes later the cells were stimulated with IgE/antigen complex. Cells were incubated at 37° C. for 6 hours and TNF-alpha in the supernatant was determined by a commercial mouse TNF-alpha ELISA (Bender-Med-Systems). Error bars indicate the standard deviation between 4 independent wells. 1=non-stimulated; 2=IgE/antigen stimulated, 3=iota-carrageenan 200 μg/ml, 4=iota-carrageenan 66 μg/ml, 5=iota-carrageenan 6.6 μg/ml, 6=iota-carrageenan 0.6 μg/ml. The Y-axis represents the concentration of TNF-alpha in pg/ml.

| Substance | inhibition of TNF-alpha release | dose dependence of inhibition of TNF-alpha production (200, 66, 6.6, 0.6 μg/ml, 6 hours (FIG. 2)) |
| --- | --- | --- |
| kappa carrageenan | inhibit TNF-alpha release | – |
| iota-carrageenan | inhibit TNF-alpha release | Dose-Dependent Inhibition |
| lambda carrageenan [reference compound] | not | – |

— patent US20120058206A1, “ANTIALLERGIC MARINE BIOPOLYMERS” (MARINOMED BIOTECHNOLOGIE GMBH, priority 2008, published 2012)
